Results on 1 molecule are retold here after US8580839B2, “Photosensitizer formulations and their use” (Biolitec Pharma Marketing Ltd, priority 2005, dated 2013).

The nature of this data set: Fluorescence detection of m-THPC tissue accumulation in patients after intravenous injection. In kind it is in vivo. Conditions: for fluorescence found/# patients tested: 0.05 mg/kg. As to the method: Comparison of tissue accumulation of m-THPC in patients after administration of the standard m-THPC formulation (“m-THPC”) and a low concentration formulation with low dosage of m-THPC (“m-THPC-dl”).
In this example, the two formulations were studied and compared to show m-THPC uptake in patient tissue after administration. The standard formulation (“m-THPC”) contained the standard concentration of m-THPC for photodynamic therapy, which is 4 mg/ml. The second formulation (“m-THPC-dl”) is a low concentration formulation containing 0.8 mg/ml of m-THPC. Each formulation was prepared with a mixture of pure propylene glycol and pure ethanol (3:2, v/v) as the excipient. Each patient received a reduced dosage of 0.05 mg of m-THPC per kg of body weight.
After administration of the two different formulations, the fluorescence accumulation in patients was monitored and the large difference in the pharmacokinetics between the m-THPC and m-THPC-dl formulations was found.
Comparison of tissue accumulation of m-THPC in patients after administration of the standard m-THPC formulation (“m-THPC”) and a low concentration formulation when m-THPC is diluted with aqueous lipid containing solubilizing preparation Lipofundin®.
In this example, the two formulations were studied and compared to show m-THPC uptake in patient tissue after administration with […]. The standard formulation (“m-THPC”) contained the standard concentration of m-THPC for photodynamic therapy is 4 mg/ml. The second formulation (“m-THPC-Lipo”) is a low concentration formulation containing 0.08 mg/ml of m-THPC (dilution for 50 times, from standard level). It was prepared by the dilution of standard m-THPC solution with the concentration of 4 mg/ml by aqueous lipid containing solubilizing preparation. Lipofundin® MCT (10%, B. Braun Melsungen AG, Melsungen, Germany). Each patient received intravenously the low dosage of 0.05 mg of m-THPC per kg of body weight.
After administration of the two different formulations, the fluorescence accumulation in patients was monitored and a no difference in the pharmacokinetics between the m-THPC and m-THPC-Lipo formulations was found.

For the molecule `Oc1cccc(-c2c3nc(c(-c4cccc(O)c4)c4ccc([nH]4)c(-c4cccc(O)c4)c4nc(c(-c5cccc(O)c5)c5ccc2[nH]5)CC4)C=C3)c1` [m-THPC, Meta-tetra(hydroxyphenyl)chlorin], where the note is “1 hour after drug injection”, the “patients with measurable fluorescence in the tumors” value was “not detected in any patients”. The “patients with strong fluorescence in the tumors” value (3 hours after injection) is reported as “about 30%”. Where the note is “2 days post-injection”, the “fluorescence in perifocal and intact skin” value was “there were patients where fluorescence in perifocal and intact skin was not observed”. Besides, the “fluorescence found/# patients tested” value (Intact skin, 15 min after injection) is listed as 0/11; the “fluorescence found/# patients tested” value (Intact skin, 1 hour after injection) was 0/11; the “fluorescence found/# patients tested” value (Intact skin, 3 hours after injection) is 2/11; the “fluorescence found/# patients tested” value (Intact skin, 1 day after injection) is listed as 8/11; the “fluorescence found/# patients tested” value (Intact skin, 2 days after injection) is on record as 9/11; the “fluorescence found/# patients tested” value (Perifocal skin, 15 min after injection) is given as 0/11. The “fluorescence found/# patients tested” value reads like this: (Perifocal skin, 1 hour after injection) 0/11; (Perifocal skin, 3 hours after injection) 2/11; (Perifocal skin, 1 day after injection) 10/11; (Perifocal skin, 2 days after injection) “All”; (Tumor, 15 min after injection) 0/11; (Tumor, 1 hour after injection) 0/11. In addition, the “fluorescence found/# patients tested” value runs as follows: (Tumor, 3 hours after injection) 4/11; (Tumor, 1 day after injection) “All”; (Tumor, 2 days after injection) “All”.
